According to US12702135B2, “Mitigation of ammonia, odor and greenhouse gases” (Syddansk Universitet, priority 2019, dated 2026):
Several values for one entry are separate records, joined by “and”; a condition that tells them apart may be missing. Equal entries are not always repeated.

Legend:
[1] = system: pig manure slurry; experiment: total ammoniacal nitrogen (Kjeldahl) in fresh pig manure slurry
Experimental: (§1) Total ammoniacal nitrogen (TAN) was measured in pig manure slurry using the Kjeldahl method. This method consists of adding 32% NaOH to the manure slurry sample in order to turn all NH4^+ in the sample to NH3. The sample is then heated in a closed system causing the NH3 to evaporate into a trap containing H3BO3 forming NH4[B(OH)4]. The remaining acid is then back-titrated with dilute HCl to give the concentration.
(§2) The pig manure slurry was made fresh on the day of measurement by mixing 10 g of feces with 30 ml of urine. Vials of approximately 4.5 ml of manure slurry were prepared. To each vial 0.5 ml of appropriate amounts of inhibitors were added. Controls were vials of 4.5 ml manure slurry with 0.5 ml H2O. After mixing inhibitors and pig manure slurry the vials were sealed and incubated at 25° C. with shaking for 5 h. After incubation, the ureolysis reaction was rapidly quenched by addition of 8 ml 32% NaOH before the sample was transferred to the Kjeldahl instrument for measurements.
as §1, with “the manure sample in” for “the manure slurry sample in”
as §2, with “of either 30 mM TA and 10 mM NaF or 50 mM TA and 10 mM NaF was added. Vials containing 0.5 ml” for “of appropriate amounts”, “of either 51 mg/ml MTA (equal to 30 mM TA on a mass basis) or 85 mg/ml MTA (equal to 50 mM TA on a mass basis) with 10 mM TA and 10 mM NaF” for “of inhibitors”, “were also prepared.” for “were added.”, “ml H2O or 10 mM NaF.” for “ml H2O.”
The pig manure slurry was made fresh on the day of measurement by mixing 10 g of feces with 30 ml of urine. Manure separation was simulated by mixing 10 g of feces with 60 ml of urine for a ratio of 1:6 w:V.
For the “normal” ratio or unseparated manure slurry (1:3) 4.5 ml manure was placed in vials. Then 0.5 ml of TA (50 mM) and NaF (10 mM) were added to the manure slurry. For the separated manure slurry (1:6) 4.5 ml were mixed with 0.5 ml of TA (25 mM) and NaF (10 mM).
Controls were vials of 4.5 ml manure slurry with 0.5 ml H2O at either 1:3 or 1:6 w:V ratios of feces:urine. After mixing inhibitors and pig manure slurry the vials were sealed and incubated at 25° C. with shaking for 5 h. After incubation, the ureolysis reaction was rapidly quenched by addition of 8 ml 32% NaOH before the sample was transferred to the Kjeldahl instrument for measurements.
Tannic acid (TA), sodium fluoride (NaF), chlorogenic acid (CA), lignosulfonic acid (LA), lignin (L), chitosan low molecular weight (CLMW), NaOH, HCl and H3BO3 were purchased from Sigma-Aldrich. The mixed tannins (75% tannins) used in this study (VINOFERM TANNOROUGE) were purchased from Brouwland. The product contains tannins from chestnut. The green tea extract was purchased from Slimming Labs (Groeningen, Netherlands) and consists of 90% polyphenols of which 40% are epigallocatechin gallate. Total ammoniacal nitrogen (TAN) was measured in pig manure slurry using the Kjeldahl method as described in example 2 and example 7. The various compounds were tested as described for MTA in example 7 using appropriate concentrations.
Initial screenings were done in duplicate and the results are given as the average of the two measurements with no standard deviation (SD). […]

[2] = system: Klebsiella pneumoniae; experiment: pH-based urease activity assay, pure K. pneumoniae culture in M9U minimal medium; assay type: cell-based, Klebsiella pneumoniae subsp. pneumoniae; details: for Reduction in ureolytic activity: pure K. pneumonia culture
Experimental: (§3) The urease stock was stored at −20° C.
All M9U components except glucose, urea, FeCl2, ZnSO4, and vitamins were mixed, the pH adjusted to 6.8 and the medium was autoclaved. Glucose, urea, FeCl2, ZnSO4, and BME Vitamin solution were sterile-filtered and added aseptically after autoclaving. Urea was added within 24 h before the medium was used.
(§4) The assay consists of a buffered urea solution containing the pH indicator phenol red and the inhibitor to be tested. […] Each compound was screened at three concentrations (10×, 100× and 1000× dilutions of the stock) in triplicate against K. pneumoniae and purified JBU. To this solution ureolytic bacteria or urease is added and the solution is incubated in a plate reader which every 15 minutes measure the absorbance at 557 nm and 630 nm (A557 and A630). Thus, inhibitor and bacteria/urease was not pre-incubated. For microbial urease activity experiments, K. pneumoniae and E. coli were grown overnight in the respective growth media. […] To each well 80 μl bacterial suspension, 100 μl growth media, and 20 μl inhibitor solution was added. Increase in absorbance at 557 nm reflects increasing pH (until saturation of the indicator at pH 8.2) and increase in absorbance at 630 nm reflects bacterial growth (optical density). In the case of ureolytic bacteria or enzymes in urea solution the increase in pH can be ascribed to the production of alkaline NH3. […] In the bacterial assay inhibitors were evaluated based on three parameters: maximal or final pH increase, onset of pH increase and rate of pH increase. The relative maximal pH increase was determined as pHmax=A557-A630. The onset of the pH increase was defined as the point where the ureolytic production of NH3 overcame the buffer capacity resulting in a colour change of the phenol red indicator measured as an absorbance increase at 557 nm. […] For each inhibitor the influence on the bacterial growth was also evaluated by identifying the end of the lag phase (onset of exponential growth), the growth rate and the maximal OD630.

[3] = target: T1, jack bean urease (Canavalia ensiformis, UniProt P07374); experiment: cell-free urease activity assay (pH-based); assay type: biochemical
T1 construct: purchased Sigma-Aldrich
T1 sequence (P07374 whole entry, looked up): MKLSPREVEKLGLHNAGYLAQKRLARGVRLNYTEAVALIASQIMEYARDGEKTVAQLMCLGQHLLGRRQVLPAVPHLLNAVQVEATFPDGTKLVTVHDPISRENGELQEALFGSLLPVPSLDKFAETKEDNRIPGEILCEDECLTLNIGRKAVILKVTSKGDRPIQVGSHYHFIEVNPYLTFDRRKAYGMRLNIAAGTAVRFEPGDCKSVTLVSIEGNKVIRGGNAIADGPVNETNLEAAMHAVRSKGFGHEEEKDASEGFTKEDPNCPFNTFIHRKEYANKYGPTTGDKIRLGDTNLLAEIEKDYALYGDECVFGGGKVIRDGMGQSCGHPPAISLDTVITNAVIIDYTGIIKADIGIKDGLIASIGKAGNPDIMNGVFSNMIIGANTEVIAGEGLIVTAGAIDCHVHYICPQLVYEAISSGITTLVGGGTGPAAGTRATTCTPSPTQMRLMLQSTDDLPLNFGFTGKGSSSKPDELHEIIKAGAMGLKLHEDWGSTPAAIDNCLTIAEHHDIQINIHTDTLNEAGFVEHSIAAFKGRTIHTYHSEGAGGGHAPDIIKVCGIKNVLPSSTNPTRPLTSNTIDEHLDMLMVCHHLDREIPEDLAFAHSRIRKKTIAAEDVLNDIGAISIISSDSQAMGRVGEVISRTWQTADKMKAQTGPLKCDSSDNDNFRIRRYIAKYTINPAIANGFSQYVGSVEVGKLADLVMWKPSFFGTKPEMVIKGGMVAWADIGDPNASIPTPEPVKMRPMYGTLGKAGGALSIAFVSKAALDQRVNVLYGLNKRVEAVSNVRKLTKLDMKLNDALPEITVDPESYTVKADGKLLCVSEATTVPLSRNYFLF
Experimental: as §3, §4
In urease inhibition assays 5 μl enzyme solution, 175 μl growth media, and 20 μl inhibitor solution were added.

[4] = system: pig manure slurry; experiment: headspace ammonia emissions from pig manure slurry (PTR-MS); details: Tannic acid 10 mM; cumulated headspace emission, 22-24° C.
Experimental: Ammonia emissions were measured in headspace experiments at ambient temperature (22-24° C.). Pig urine (30 ml) and 10 g of frozen pig feces were thawed and added to each of nine 100 mL reactors and mixed with tannic acid and sodium fluoride in different concentrations. Tannic acid and sodium fluoride was purchased from Sigma-Aldrich. A flow of 0.5 L±10% air/min was continuously applied to the headspace of each reactor with mass flow controllers (Bronkhorst EL-FLOW, Ruurlo, Netherlands). The air flow carried the emitted ammonia from the pig manure slurry in the reactors to a proton transfer reaction mass spectrometer (PTR-MS) (Ionicon Analytik, Innsbruck, Austria) for quantification. A PEEK valve (Bio-Chem Valve Inc., Boonton, NJ, USA) was used to switch between the nine reactors every 12 min. The PTR-MS was operated at a reduced electric field of 142 Townsend (2.15 mbar and 75° C. in the drift tube). Every 24 h, 3 ml of pig urine and 1 g of pig feces was thawed and supplemented to the reactors. Tannic acid and sodium fluoride was also supplemented every 24 h to maintain a constant inhibitor concentration in the manure. For acidification treatment, the manure slurry was acidified with H2SO4 to pH 5.5 every 24 h. The gas emissions were monitored continuously for 12 days. […]

[5] = weak acidity due to the numerous phenol groups; cited from earlier work
[6] = system: 12 days old pig manure slurry; experiment: methane production in anaerobic inoculum flasks (GC-FID); details: 10 mM TA alone, 3 weeks
Experimental: This was done by transferring the TA-NaF treated manure slurry used in example 3 to 100 mL inoculum flasks on day 12. The manure slurry was weighed before inoculation and the headspace was flushed with helium (Linde Group) prior to encapsulation. Gas from the headspace of the inoculum flasks was sampled into 6 mL vacuum sealed exetainer vials (Labco Limited, Lampeter, UK) every week the following three weeks and stored for later CH4 analysis on a GC-FID. After sampling from the inoculum flasks, the pressure in the headspace was equalized with a needle.

O=C(/C=C/c1ccc(O)c(O)c1)O[C@@H]1C[C@](O)(C(=O)O)C[C@@H](O)[C@H]1O [CA, chlorogenic acid]
Reduction in ammonia production (Mean ± SD) ([1]; CA 5 mM (2.3 mg/ml), pig manure slurry, duplicate, no SD): 6%

CC(=O)NO [AHA, acetohydroxamic acid]
Reduction in ureolytic activity ([2]; AHA 0.2 mM): 14 ± 6% | Reduction in ammonia production (Mean) ([1]; AHA 0.5 mM, pig manure slurry): 14% and 14 ± 2.3% | Reduction in ammonia production (Mean) ([1]; AHA 1 mM, pig manure slurry): 24 ± 3.4%

O=C1C=CC(=O)N1c1ccccc1 [N-phenylmaleimide]
Reduction in ammonia production ([1]; N-phenylmaleimide 3.9 mM, pig manure slurry, 25° C., 5 h): 59%

O=C(O)CNCC(=O)O [Iminodiacetic acid]
Reduction in ammonia production ([1]; Iminodiacetic acid 0.8 mM, pig manure slurry, 25° C., 5 h): 19%

O=C(OC[C@H]1O[C@@H](OC(=O)c2cc(O)c(O)c(OC(=O)c3cc(O)c(O)c(O)c3)c2)[C@H](OC(=O)c2cc(O)c(O)c(OC(=O)c3cc(O)c(O)c(O)c3)c2)[C@@H](OC(=O)c2cc(O)c(O)c(OC(=O)c3cc(O)c(O)c(O)c3)c2)[C@@H]1OC(=O)c1cc(O)c(O)c(OC(=O)c2cc(O)c(O)c(O)c2)c1)c1cc(O)c(O)c(OC(=O)c2cc(O)c(O)c(O)c2)c1 [Tannic acid, tannic acid]
inhibition at 1000 µM ([2]; Klebsiella pneumoniae, 1.0 mM, read-out: reduction of ureolytic activity (pH change) relative to uninhibited control): 21.3 ± 1.3% | Reduction in ureolytic activity ([2]; TA 0.05 mM, listed as TA): 16% and 16 ± 5% | Reduction in ureolytic activity ([2]; TA 0.1 mM): 9.4 ± 3% | Reduction in ureolytic activity ([2]; TA 0.2 mM): 3.9 ± 6% | inhibition of ureolytic activity ([2]; tannic acid 0-0.8 mM alone): 0-12% | ureolytic pH change compared to the uninhibited control (FIG. 5) ([2]; tannic acid alone up to 0.8 mM): does not reduce the pH change significantly | pH change (reduced to) ([3]; 0.1 mM): 0 | Reduction in ammonia emissions, 12 days [4]: 88.4% | Reduction in ammonia production (Mean) ([1]; TA 3 mM, pig manure slurry (Example 11)): 0 ± 4% | Reduction in ammonia production (Mean ± SD) ([1]; TA 5 mM (8.5 mg/ml), pig manure slurry (Example 10)): 18 ± 1.3% | Reduction in ammonia production (Mean) ([1]; TA 5 mM, pig manure slurry (Example 11)): 18 ± 1.3% | Reduction in ammonia production ([1]; Tannic acid 10 mM, pig manure slurry, 25° C., 5 h (Example 2)): 17.6%^ | Reduction in ammonia production ([1]; in solution, Tannic acid 5 mM, pig manure slurry, 25° C., 5 h (Example 3)): 17.6% | Reduction in ammonia production ([1]; in solution, Tannic acid 10 mM, pig manure slurry, 25° C., 5 h (Example 3)): 35.2% | pKa [5]: around 6 | methane production, % of the uninhibited control (FIG. 3B) [6]: 0.01%

NCCS [Cysteamine]
Reduction in ammonia production ([1]; Cysteamine 1 mM, pig manure slurry, 25° C., 5 h): 25%

[F-].[Na+] [NaF, sodium fluoride]
inhibition of ureolysis ([2]; 0.3 mM fluoride alone): 14.7% | ureolytic activity (pH change) relative to the uninhibited control ([2]; 1.0 mM): 0 | reduction of pH change (FIG. 5) ([2]; NaF 0.3 mM): 12-15% | reduction in initial rate of pH change ([3]; 1.0 mM): 89.4±1.0% | reduction of pH change ([3]; 1.0 mM): 80.6±3.0% | Reduction in concentration of NH3 ([1]; 1 mM NaF, pig manure slurry, 25° C., 5 h (Example 7)): 17.7 ± 4%. | Reduction in ammonia production (Mean ± SD) ([1]; NaF 1 mM, pig manure slurry (Example 10)): 9 ± 1.0% | Reduction in ammonia production (Mean) ([1]; NaF 1 mM, pig manure slurry (Example 11)): 9 ± 1.0% | Reduction in ammonia production ([1]; NaF 1 mM, pig manure slurry, 25° C., 5 h (Example 2)): 24% | Reduction in ammonia production ([1]; in solution, NaF 1 mM, pig manure slurry, 25° C., 5 h (Example 3)): 8.6%
